Laboratory results taken from PubChem BioAssay AID250 (DTP/NCI, 2004).
Values joined by “and” are separate entries in the source; they are usually repeats but may differ in a detail not shown here. Identical values can stand only once. Inconclusive results and toxic doses are left out.

Test system: BDF1 mice, L1210 leukemia sc, survival T/C
Assay: NCI In Vivo Anticancer Drug Screen. Data for tumor model L1210 Leukemia (subcutaneous) in B6D2F1 (BDF1) mice
Details: endpoint: median survival time, vehicle: water, higher = longer survival
Procedure, shortened: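 Transplantable tumor-bearing mice; survival or tumor size recorded; result = T/C, treated vs vehicle control.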

## O=P1(NCCCl)OCCCN1CCCl (centres undefined)
dose: 7.8 mg/kg/injection, schedule: Q03HX008 (ip)
  T/C: 166 % of control
dose: 7.8 mg/kg/injection, schedule: Q03HX008 (sc)
  T/C: 111 % of control
dose: 15.62 mg/kg/injection, schedule: Q03HX008 (ip)
  T/C: 155 % of control
dose: 15.62 mg/kg/injection, schedule: Q03HX008 (sc)
  T/C: 122 % of control
dose: 23.0 mg/kg/injection, schedule: Q03HX008 (sc)
  T/C: 178 % of control
dose: 31.25 mg/kg/injection, schedule: Q03HX008 (ip)
  T/C: 166 % of control
dose: 31.25 mg/kg/injection, schedule: Q03HX008 (sc)
  T/C: 166 % of control
dose: 39.0 mg/kg/injection, schedule: Q01DX009 (sc)
  T/C: 168 % of control
dose: 39.0 mg/kg/injection, schedule: Q01DX015 (ip)
  T/C: 194 % of control and 197 % of control
dose: 39.0 mg/kg/injection, schedule: Q03HX008 (sc)
  T/C: 210 % of control
dose: 62.5 mg/kg/injection, schedule: Q03HX008 (ip)
  T/C: 611 % of control
dose: 62.5 mg/kg/injection, schedule: Q03HX008 (sc)
  T/C: 611 % of control
dose: 65.0 mg/kg/injection, schedule: Q01DX009 (sc)
  T/C: 189 % of control
dose: 65.0 mg/kg/injection, schedule: Q01DX015 (ip)
  T/C: 236 % of control
dose: 65.0 mg/kg/injection, schedule: Q03HX008 (sc)
  T/C: 278 % of control
dose: 108.0 mg/kg/injection, schedule: Q01DX001 (sc)
  T/C: 111 % of control and 114 % of control
dose: 108.0 mg/kg/injection, schedule: Q01DX009 (sc)
  T/C: 236 % of control
dose: 108.0 mg/kg/injection, schedule: Q01DX015 (ip)
  T/C: 178 % of control and 187 % of control
dose: 108.0 mg/kg/injection, schedule: Q03HX008 (sc)
  T/C: 115 % of control
dose: 108.0 mg/kg/injection, schedule: Q07DX003 (ip)
  T/C: 210 % of control and 218 % of control
dose: 108.0 mg/kg/injection, schedule: Q08DX002 (sc)
  T/C: 173 % of control
dose: 108.0 mg/kg/injection, schedule: Q09DX003 (sc)
  T/C: 154 % of control and 155 % of control
dose: 125.0 mg/kg/injection, schedule: Q01DX001 (ip)
  T/C: 155 % of control
dose: 125.0 mg/kg/injection, schedule: Q01DX001 (sc)
  T/C: 150 % of control
dose: 130.0 mg/kg/injection, schedule: Q01DX001 (sc)
  T/C: 154 % of control and 157 % of control
dose: 130.0 mg/kg/injection, schedule: Q04DX003 (sc)
  T/C: 189 % of control and 197 % of control
dose: 180.0 mg/kg/injection, schedule: Q01DX001 (ip)
  T/C: 183 % of control and 184 % of control
dose: 180.0 mg/kg/injection, schedule: Q01DX015 (ip)
  T/C: 156 % of control and 157 % of control
dose: 180.0 mg/kg/injection, schedule: Q03HX008 (sc)
  T/C: 105 % of control
dose: 180.0 mg/kg/injection, schedule: Q07DX003 (ip)
  T/C: 252 % of control and 253 % of control
dose: 180.0 mg/kg/injection, schedule: Q08DX002 (sc)
  T/C: 215 % of control
dose: 180.0 mg/kg/injection, schedule: Q09DX003 (sc)
  T/C: 244 % of control and 245 % of control
dose: 216.0 mg/kg/injection, schedule: Q01DX001 (sc)
  T/C: 184 % of control and 185 % of control
dose: 216.0 mg/kg/injection, schedule: Q04DX003 (sc)
  T/C: 210 % of control and 216 % of control
dose: 250.0 mg/kg/injection, schedule: Q01DX001 (ip)
  T/C: 205 % of control
dose: 250.0 mg/kg/injection, schedule: Q01DX001 (sc)
  T/C: 177 % of control
dose: 256.0 mg/kg/injection, schedule: Q01DX001 (sc)
  T/C: 192 % of control and 195 % of control
dose: 300.0 mg/kg/injection, schedule: Q01DX001 (ip)
  T/C: 205 % of control
dose: 300.0 mg/kg/injection, schedule: Q01DX009 (sc)
  T/C: 157 % of control
dose: 300.0 mg/kg/injection, schedule: Q07DX003 (ip)
  T/C: 273 % of control and 279 % of control
dose: 300.0 mg/kg/injection, schedule: Q08DX002 (sc)
  T/C: 100 % of control
dose: 300.0 mg/kg/injection, schedule: Q09DX003 (sc)
  T/C: 244 % of control and 247 % of control
dose: 320.0 mg/kg/injection, schedule: Q01DX001 (sc)
  T/C: 212 % of control and 220 % of control
dose: 360.0 mg/kg/injection, schedule: Q01DX001 (sc)
  T/C: 226 % of control and 229 % of control
dose: 360.0 mg/kg/injection, schedule: Q04DX003 (sc)
  T/C: 242 % of control
dose: 400.0 mg/kg/injection, schedule: Q01DX001 (sc)
  T/C: 235 % of control and 249 % of control
dose: 500.0 mg/kg/injection, schedule: Q01DX001 (ip)
  T/C: 242 % of control
dose: 500.0 mg/kg/injection, schedule: Q08DX002 (sc)
  T/C: 121 % of control
dose: 500.0 mg/kg/injection, schedule: Q09DX003 (sc)
  T/C: 116 % of control and 122 % of control
dose: 600.0 mg/kg/injection, schedule: Q01DX001 (sc)
  T/C: 77 % of control
dose: 600.0 mg/kg/injection, schedule: Q04DX003 (sc)
  T/C: 115 % of control and 117 % of control
dose: 625.0 mg/kg/injection, schedule: Q01DX001 (sc)
  T/C: 124 % of control
dose: 833.0 mg/kg/injection, schedule: Q01DX001 (ip)
  T/C: 71 % of control
dose: 1000.0 mg/kg/injection, schedule: Q01DX001 (sc)
  T/C: 63 % of control
